These are literature values, as cited in patent publication US10485789B2, “Compositions and methods for targeting receptors expressed in the gut” (Sensor Pharmaceuticals, Inc., priority 2014, dated 2019).

For the series, the system named is DSS injury model. Conditions: mice pretreated with antibiotics.

The structures appear in SMILES notation.

`O=C(O)c1cccnc1` [niacin]: the “effect in the DSS injury model” value is recorded as “dramatic effect”.
